Values quoted from earlier work, collected in US20130078304A1, “CONTROLLED RELEASE FORMULATION FOR TREATING SLEEP DISORDERS” (TAIWAN BIOTECH CO., LTD., priority 2011, published 2013).

Tests used:
[1] = molecular target: T1, benzodiazepine (BZ1) receptors (Homo sapiens, UniProt P14867+P18507)
T1 sequence (P14867 28-456): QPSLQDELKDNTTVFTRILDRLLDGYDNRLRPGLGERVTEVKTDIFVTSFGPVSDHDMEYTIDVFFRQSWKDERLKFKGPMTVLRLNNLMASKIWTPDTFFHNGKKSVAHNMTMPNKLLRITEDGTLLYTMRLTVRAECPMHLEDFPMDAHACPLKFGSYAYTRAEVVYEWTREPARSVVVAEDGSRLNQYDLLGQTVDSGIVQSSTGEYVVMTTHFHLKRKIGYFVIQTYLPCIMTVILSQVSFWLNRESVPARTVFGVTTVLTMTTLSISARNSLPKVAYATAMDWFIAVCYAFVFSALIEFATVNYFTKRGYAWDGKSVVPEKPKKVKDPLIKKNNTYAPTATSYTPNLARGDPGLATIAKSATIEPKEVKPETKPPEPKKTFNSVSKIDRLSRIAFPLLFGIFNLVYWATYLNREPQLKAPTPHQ
T1 sequence (P18507 40-467 limits assumed): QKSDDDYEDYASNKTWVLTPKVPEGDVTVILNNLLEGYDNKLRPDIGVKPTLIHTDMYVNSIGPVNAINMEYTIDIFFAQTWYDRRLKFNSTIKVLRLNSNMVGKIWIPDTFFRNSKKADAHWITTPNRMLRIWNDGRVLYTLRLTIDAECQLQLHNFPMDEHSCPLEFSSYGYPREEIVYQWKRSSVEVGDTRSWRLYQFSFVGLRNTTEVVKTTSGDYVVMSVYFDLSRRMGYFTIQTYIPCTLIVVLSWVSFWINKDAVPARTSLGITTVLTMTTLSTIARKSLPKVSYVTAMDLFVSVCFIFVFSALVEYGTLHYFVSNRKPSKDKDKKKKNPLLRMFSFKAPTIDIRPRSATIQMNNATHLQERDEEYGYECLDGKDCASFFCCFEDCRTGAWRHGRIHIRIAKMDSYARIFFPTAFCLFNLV
T1 sequence (P47870 25-512 partner limits assumed): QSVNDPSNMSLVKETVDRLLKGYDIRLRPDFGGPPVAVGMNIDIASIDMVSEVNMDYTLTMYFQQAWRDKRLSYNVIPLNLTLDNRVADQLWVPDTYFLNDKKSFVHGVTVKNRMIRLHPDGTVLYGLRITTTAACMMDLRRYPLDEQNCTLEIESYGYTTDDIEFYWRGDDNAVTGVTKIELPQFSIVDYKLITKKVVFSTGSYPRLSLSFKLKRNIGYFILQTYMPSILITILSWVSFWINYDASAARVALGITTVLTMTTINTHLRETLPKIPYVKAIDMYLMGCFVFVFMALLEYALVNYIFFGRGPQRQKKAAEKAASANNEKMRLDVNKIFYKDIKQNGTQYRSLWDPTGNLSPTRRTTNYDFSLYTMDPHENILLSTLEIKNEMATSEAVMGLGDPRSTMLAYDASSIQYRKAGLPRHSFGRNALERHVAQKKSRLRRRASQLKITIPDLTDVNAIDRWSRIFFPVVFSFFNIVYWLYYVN

SMILES: CCN(C(C)=O)c1cccc(-c2ccnc3c(C#N)cnn23)c1 [Zaleplon, N-[3-(3-cyanopyrazolo-[1,5-a]-pyrimidin-7-yl)-phenyl]-N-ethyl acetamide]
- solubility in aqueous media: poorly soluble
- binding to the BZ1 receptor [1]: more weakly bound to the receptor than is Zolpidem
